Measured values as given in US20110288125A1, “NOVEL USE OF PIPERINE” (Industry-Academic Cooperation Foundation, Yonsei University, priority 2009, published 2011).
Entries after “also recorded” stand apart in the source; their conditions may differ.

Experiments:
[1] = system: C57BL/6J mice; assay: Body weight, food efficiency and abdominal fat-pad weights in mice on high-fat diet; type: in vivo, mouse; details: 10 weeks
Procedure: The high-fat diet (HFD, 40% fat calorie, 17 g lard+3% corn oil/100 g diet) was used to induce obesity and piperine-containing diet had the same composition as the HFD except for containing 0.05% piperine. Normal diet (ND) was prepared according to AIN-76 rodent diet (see Table 1). [table] 5-week-old male C57BL/6J mice were accustomed to the laboratory environment for a week while feeding solid feed. […] Diet was provided between 10 and 11 a.m. every day along with water. Diet intake was measured every day, and body weight was measured every 3 days. In order to avoid transient body weight increase due to feed intake, body weight was measured 2 hours after removing the feedbox. […] In addition, food efficiency ratio (FER) was calculated by dividing accumulated body weight gain during test period into total diet uptake from the first day of test diet to sacrifice day. […] Further, regarding accumulation of abdominal fat, after fasting the test animal for at least 12 hours and anesthetizing with diethyl ether, blood, liver and abdominal fat tissues (epididymal, perirenal, mesenteric and retroperitoneal fat) were taken and weighed after washing with 0.1 M PBS (pH 7.4).

[2] = system: mouse adipocytes (3T3-L1); assay: Adipocyte differentiation inhibition, Oil Red O staining; type: cell-based; details: 14 days
Procedure: The effect of piperine on adipocyte differentiation and growth was investigated using mouse adipocytes (3T3-L1). Preadipocytes 3T3L1 were placed on a 12-well plate and cultured to confluency in a 5% CO2 incubator at 37° C. using DMEM containing 1% penicillin-streptomycin, 1% non-essential amino acids and 10% fetal bovine serum (FBS). The cultured 3T3-L1 cells were differentiated into adipocytes by culturing for 2 days in a medium containing 0.5 mM methylisobutylxanthine/1 μM dexamethasone/1 μg/mL insulin (DMI). The cells were differentiated into mature adipocytes by further culturing for 2 days in DMEM containing 1 μg/mL insulin. Subsequently, they were further cultured for 10 days while changing DMEM every other day to obtain fully differentiated adipocytes. Starting from the day when DMI was added to the 3T3-L1 cells, piperine was treated at concentrations of 0.1, 1, 10, 50 and 100 μM every other day. Piperine was purchased from Sigma and used after being dissolved in DMSO. For negative control, only DMSO was used. After the culturing for a total of 14 days, when the cells were fully differentiated, the medium was removed and the fats contained in the differentiated adipocytes were stained. […] To measure the triglyceride level of the differentiated 3T3-L1 cells, the stained cells were dissolved in 1 mL of isobutanol and OD value was measured at 600 nm.

[3] = system: Swiss albino mice; details: piperine 100 mg/kg once a day for 4 weeks before benzo[α]pyrene 50 mg/kg twice a week for 16 weeks; cited from earlier work
[4] = 0.05% piperine in HFD, per unit body weight, FIG. 4

Question: Which results are given for `O=C(/C=C/C=C/c1ccc2c(c1)OCO2)N1CCCCC1` [piperine]?
Answer: decrease in body weight gain (accumulated) compared to high-fat diet control group ([1]; 0.05% piperine in HFD, FIG. 2): 68%; decrease in final body weight compared to high-fat diet control group ([1]; 0.05% piperine in HFD, FIG. 2): 40%; daily food intake compared to high-fat diet control group ([1]; 0.05% piperine in HFD, FIG. 3): reduced; also recorded: significant decrease; reduction of food efficiency ratio (FER) compared to high-fat diet control group ([1]; 0.05% piperine in HFD, body weight gain / total diet intake, FIG. 3): 64%; reduction of epididymal fat-pad weight compared to high-fat diet control group [1, 4]: 63%; reduction of mesenteric fat-pad weight compared to high-fat diet control group [1, 4]: 68%; reduction of perirenal fat-pad weight compared to high-fat diet control group [1, 4]: 85%; reduction of retroperitoneal fat-pad weight compared to high-fat diet control group [1, 4]: 63%; reduction of total abdominal (visceral) fat-pad weights compared to high-fat diet control group [1, 4]: 66%; feed efficiency compared to control group (HFD), in words ([1]; piperine-supplemented diet): reduced; concentration at which differentiation of preadipocytes 3T3-L1 was decreased in a concentration-dependent manner ([2]; piperine 0.1, 1, 10, 50 and 100 μM every other day, vs DMSO, FIG. 1A): ≥ 10 µM; amount of intracellular fat (OD value at 600 nm of fats stained with Oil Red O) ([2]; piperine 0.1-100 μM, stain dissolved in isobutanol, FIG. 1B): concentration-dependently reduced the amount of intracellular fat; also recorded: decrease in OD value in a concentration-dependent manner; antioxidant indicators (SOD, CAT, GPX, GSH, vitamin E, vitamin C) in the tissues [3]: significantly high values
